Data on 64 molecules can be found in PubChem BioAssay AID652 (University of Pittsburgh Molecular Library Screening Center, 2007).

The source made the active and inactive calls. How the calls were made is not given here.

The first assay addresses Gag-Pol polyprotein (Human immunodeficiency virus type 1 group M subtype B (isolate HXB2)) (UniProt P04585). Nature of the assay: concentration-response of HIV-1 RNase H blockers – biochemical, probe assessment, dose response (AID 652). As to conditions: HIV-1 RT RNase H enzymatic assay.
As a reminder, the IC50 is the concentration that inhibits the measured activity by half. On to `CCCCn1c(SCC(=O)OCC)nc2c1c(=O)[nH]c(=O)n2C`, for which the IC50 was > 50 µM (inactive). As for `O=C1CCCC(O)=C1C(C#Cc1ccccc1)C1=C(O)CCCC1=O`, the half-inhibitory concentration (IC50) is 1.08 µM. On the same count and under the same terms, to `O=C1C=Cc2ccccc2C1=O` belongs 2.64 µM; to `CCOc1ccc(N2Cc3ccccc3C2)cc1`, 7.36 µM. For `Cc1ccccc1N1C(=O)c2sc3nc4c(c(=O)n3c2C1=O)CCC4`, the IC50 was 2.37 µM.

In the case of `CN(C)c1ccc(N=Cc2c(O)n(CCC3=CCCCC3)c(=O)[nH]c2=O)cc1`, the IC50 is 3.8 µM. For `O=C(Nc1nc(-c2ccncc2)cs1)C1COc2ccccc2O1` (stereo not given), the IC50 is > 50 µM (inactive). For `CCOC(=O)N1CC=C2C(C#N)=C(N)C(C#N)(C#N)[C@H](c3ccc(OC(C)C)c(OCC)c3)[C@H]2C1`, the IC50 was 21.7 µM. As to `Nc1c(S(=O)(=O)c2cccc(Cl)c2)c2nc3ccccc3nc2n1/N=C/c1ccc(O)c(O)c1`, the IC50 was 0.266 µM.

For `N#Cc1c(-c2cccnc2)c2c([nH]c1=S)CCCC2`, the IC50 was 10.2 µM.

Consider `Nc1c(C(=O)NCc2cccnc2)sc(=S)n1-c1ccccc1`, for which the IC50 is 2.22 µM.

Still in this assay, the particulars now being: HIV-1 RT RNase H enzymatic assay, inhibition, at 50 µM, stronger effect = higher value.
Usually inhibition stands for the drop in the measured response relative to a control, in per cent. For the molecule `COc1cccc(OC)c1-c1nn2c(-c3cc(-c4ccccc4)n[nH]3)nnc2s1`, the inhibition was determined as 63.5%. On the same count and under the same terms, under `COC(=O)c1ccccc1S(=O)(=O)N(Cc1cc2cc3c(cc2[nH]c1=O)OCO3)C1CCCCC1` stands 90.3%; under `O=C(NC1CCCCC1)c1sc(=S)n2c1[nH]c(=O)c1ccccc12`, 96.5%. Turning to `NC(=O)c1cc(-c2ccccc2)sc1NC(=O)Cc1ccc(S(=O)(=O)N2CCOCC2)s1`, the inhibition is 83.3%.

With `CCOC(=O)c1c(N)sn(-c2ccccc2C)c1=S`, the inhibition is 83.4%. For the molecule `CC(C)c1ccc2oc(-c3ccc(NC(=O)c4ncn[nH]4)cc3)nc2c1`, the inhibition is 92.7%.

Turning to `Cc1cc(NC(=O)CSc2ccc(-c3nc4cc(C)c(C)cc4[nH]3)cn2)no1`, the inhibition was 83%.

`CCCCn1c(SCC(=O)OCC)nc2c1c(=O)[nH]c(=O)n2C`: the inhibition was 55.7%. Same read-out and setting: to `CC(=O)c1cccc(NC(=O)c2cc(-c3ccc(C)cc3)on2)c1` belongs 95.8%. Same read-out and setting: to `Cc1ccc(-n2sc3ccccc3c2=O)cc1S(=O)(=O)N1CCCCC1` belongs 96.9%; to `CCCCC[C@H](O)/C=C/[C@H]1C=CC(=O)[C@@H]1C/C=C\CCCC(=O)O`, 101%. For the molecule `c1ccc(Cc2nn3c(Cn4cnc5ccccc54)nnc3s2)cc1`, the inhibition is 91.2%. As for `C=CCn1c(SCC(=O)c2ccc(O)c(O)c2)nnc1-c1ccccc1OC`, the inhibition is 97.5%.

Take `Cc1cccc(OCC(=O)Nc2cccc(-c3nnc(-c4ccccc4)o3)c2)c1C`: the inhibition was 88.1%. For `CCOC(=O)c1c(C)[nH]c(C(=O)CSc2nc3ccccc3o2)c1C`, the inhibition stood at 93.7%. Turning to `O=C1CCCC(O)=C1C(C#Cc1ccccc1)C1=C(O)CCCC1=O`, the inhibition was 90.9%.

On to `O=C(O)/C=C/c1ccc(O)c(O)c1`, for which the inhibition came to 52.1%. As for `CCC1CC2(C)NC(=O)c3c(sc4c3CC(C)(C)OC4)N2C1=O` (stereo not given), the inhibition worked out at 82.8%. For `O=C(CCCn1c(SCC(=O)c2ccc(O)c(O)c2)nc2ccccc2c1=O)NCC1CCCO1` (stereo not given), the inhibition is 99.4%. Take `O=c1c(O)c(-c2ccc(O)cc2O)oc2cc(O)cc(O)c12`: the inhibition was determined as 92.8%. As for `O=C1C=Cc2ccccc2C1=O`, the inhibition was 97.7%.

As to `COc1cc(C2CC(=O)N3CN(c4ccccc4C)CSC3=C2C#N)cc(OC)c1OC` (stereo not given), the inhibition was found to be 100%.

With `CCOC(=O)CSc1nc2cc(C(=O)NCc3ccco3)ccc2c(=O)n1-c1ccc(F)cc1`, the inhibition stood at 91.8%.

Turning to `Cc1ccnc(-n2sc3ccccc3c2=O)n1`, the inhibition turned out to be 96.7%. Turning to `COc1ccc(N2CCN(Cc3cc(=O)oc4cc(C)c(Cl)c(C)c34)CC2)cc1`, the inhibition is 96%.

In the case of `CCOC(=O)N(c1ccccc1)P1(=S)OCCO1`, the inhibition turned out to be 85.5%. Consider `C=CCSc1nc2c(c(=O)[nH]c(=O)n2C)n1C(C)C`, for which the inhibition amounted to 60.6%. In the case of `Cc1ccc(-n2c(N)c(C(=O)N3CCOCC3)sc2=S)cc1`, the inhibition was 75.9%. With `CC(C)OC(=O)CSc1nnc(-c2ccc(C(C)(C)C)cc2)n1N`, the inhibition came to 59.5%. Consider `Cc1cc(NC(=O)CSc2nc3cc4c(cc3c(=O)n2CCc2ccccc2)OCO4)no1`, for which the inhibition came out at 76.9%. On the same count and under the same terms, under `O=c1cc(CN2CCN(c3ccccc3)CC2)c2cc(O)c(-c3ccccc3)cc2o1` stands 96.1%; under `CCN(Cc1ccccc1)S(=O)(=O)c1ccc(C(=O)Nc2nnc(-c3ccccc3OC)o2)cc1`, 95.8%; under `CCOc1ccc(N2Cc3ccccc3C2)cc1`, 80%. For `Cc1ccccc1N1C(=O)c2sc3nc4c(c(=O)n3c2C1=O)CCC4`, the inhibition was found to be 98.7%. As to `COc1ccc(OC)c(S(=O)(=O)Nc2ccc(O)c(Sc3ncn[nH]3)c2)c1`, the inhibition turned out to be 89.7%. For `O=C(CCN1C(=O)c2ccccc2C1=O)Nc1ccc(-c2nc3ccccc3o2)cc1`, the inhibition came to 92.1%. The same measure, in the same setting: to `CN(C)c1ccc2c(c1)N=C(c1ccco1)OP2(=S)N1CCOCC1` (stereo not given) belongs 92.9%; to `C=CCn1c(N)c(C(=O)NCCC2=CCCCC2)sc1=S`, 85.9%; to `CN(C)c1ccc(N=Cc2c(O)n(CCC3=CCCCC3)c(=O)[nH]c2=O)cc1`, 80.1%.

For the molecule `CCn1c(SCC(=O)c2ccc(O)c(O)c2)nnc1-c1ccccc1OC`, the inhibition worked out at 98.4%. For the molecule `O=C(CSc1nnnn1-c1ccccc1)Nc1nsc(-c2ccc(Cl)cc2)n1`, the inhibition stood at 48.8%.

For the molecule `O=C(c1ccccc1F)N1CCN(S(=O)(=O)c2ccc(S(=O)(=O)N3CCCCC3)cc2)CC1`, the inhibition is 95.5%. For `O=C(CSc1nc2ccccc2c2nc3ccccc3n12)NCc1ccco1`, the inhibition stood at 67.7%. `CCC(C)c1ccc2oc(-c3ccc(NC(=O)c4ncn[nH]4)cc3)nc2c1` (stereo not given): the inhibition stood at 94.2%.

Regarding `O=C(NCc1ccco1)c1cc2cc3ccc(Cl)cc3nc2o1`, the inhibition came out at 91.6%.

For the molecule `COc1cc(-c2nn3c(Cc4ccccc4)nnc3s2)cc(OC)c1OC`, the inhibition amounted to 86%. Still for that read-out and setting: under `COC(=O)c1ccc2c(c1)N(Cc1nc(-c3ccc(Cl)cc3)oc1C)C(=O)C1CCCN21` (stereo not given) stands 78.9%; under `C=CCc1c(C)[nH]c(=S)c(C#N)c1C`, 67.2%. In the case of `O=C(Nc1nc(-c2ccncc2)cs1)C1COc2ccccc2O1` (stereo not given), the inhibition came out at 92.5%. As to `Cc1cc(C)c(NC(=O)Cn2c(=O)n(Cc3ccco3)c(=O)c3ccccc32)c(C)c1`, the inhibition is 76.8%. With `CCOC(=O)N1CC=C2C(C#N)=C(N)C(C#N)(C#N)[C@H](c3ccc(OC(C)C)c(OCC)c3)[C@H]2C1`, the inhibition came out at 98.5%. On to `CCC(C)Sc1nc2c(c(=O)[nH]c(=O)n2C)n1CC(O)COc1cccc2ccccc12` (stereo not given), for which the inhibition turned out to be 95%.

For `Nc1c(S(=O)(=O)c2cccc(Cl)c2)c2nc3ccccc3nc2n1/N=C/c1ccc(O)c(O)c1`, the inhibition was found to be 96.3%. For `CCOC(=O)N1CCc2c(sc3c2C(=O)NC(c2ccc(-c4ccc(Cl)cc4)o2)N3)C1` (stereo not given), the inhibition turned out to be 94.3%. On the same count and under the same terms, under `Cc1cccc(-c2nsc(SCC(=O)Nc3nccs3)n2)c1` stands 97.3%.

Turning to `CC1CC(C)(C)NC(=S)S1` (stereo not given), the inhibition came to 66%.

`S=c1nc(C2CC2)[nH]c2ccccc12`: the inhibition is 97.1%. Turning to `N#Cc1c(-c2cccnc2)c2c([nH]c1=S)CCCC2`, the inhibition came to 77.9%.

In the case of `CCc1ccc(NC(=O)CSc2nc3cc(C(=O)OC)ccc3c(=O)n2Cc2ccco2)cc1`, the inhibition amounted to 94.7%.

Regarding `CC(C)CNC(=O)c1c(N)n(/N=C/c2ccccn2)c2nc3ccccc3nc12`, the inhibition came to 95%. Consider `CC(C)Cc1cc(C(=O)Nc2sc3c(c2C#N)CCCC3)no1`, for which the inhibition stood at 94.6%. Take `Nc1c(C(=O)NCc2cccnc2)sc(=S)n1-c1ccccc1`: the inhibition stood at 73.5%. With `Cc1ccc(NC(=O)Cn2nnc(C(=O)Nc3ccc(C)c(C)c3)c2N)cc1`, the inhibition stood at 76.8%.

As to `COc1cccc(OCC(=O)Nc2c(C(=O)Nc3ccc(OC)cc3OC)oc3ccccc23)c1`, the inhibition amounted to 88.5%.
